How the values were obtained:
physchem = conditions: n-octanol/MOPS aqueous buffer, pH 7.4
Description: Distribution coefficient, logD of compound in n-Octanol/MOPS aqueous buffer at pH 7.4 by shake-flask method based mass spectrometry analysis

in vitro [1] = conditions: mouse, liver microsomes
Description: Metabolic stability in mouse liver microsomes assessed as parent compound remaining measured after 90 mins in presence of NADPH/H+ by HPLC analysis

in vitro [2] = conditions: human, human serum
Description: Plasma protein binding in human serum by HPAC analysis

logD (physchem)	remaining at 1.5 h (in vitro [1]) [%]	fraction unbound (in vitro [2])	SMILES
2.34	–	–	c1cc2c(cc1C1CCOC3(CCN(CC4CCCC4)CC3)C1)CCO2 (stereo not given)
3.33	–	–	Oc1cccc(CN2CCC3(CC2)CC(CCc2ccccc2)CCO3)c1 (stereo not given)
2.42	74	0.15	O=c1oc2ccccc2n1C1CCOC2(CCN(Cc3ccccc3)CC2)C1 (stereo not given)
